The values below come from US20260008754A1, “N-SUBSTITUTED DERIVATIVES OF L-(L-PHENYL-3-ARYL)-LFF-PYRAZOL-4-YL)METHANAININE, METHOD FOR THEIR PRODUCTION AND THEIR APPLICATIONS” (priority 2022, published 2026).

Experiment [1] addresses T1, μ opioid receptor (Homo sapiens, UniProt P35372). Kind of experiment: μ opioid receptor agonism, G protein signaling pathway. The format is cell-based. The settings on record: for Biased Agonism Selectivity Coefficient k: G protein pathway relative to β arrestin (ratio of the two EC50).
For experiment [2], the target named is T1, μ opioid receptor. Kind of experiment: μ opioid receptor agonism, β arrestin pathway. Type of experiment: cell-based.
The mark [3] stands for this setting: μ opioid receptor, G protein pathway, read-out: EC50 (G protein).
Setting [4] is: μ opioid receptor, β arrestin pathway, read-out: EC50 (β arrestin).

T1 sequence (P35372 whole entry, species assumed): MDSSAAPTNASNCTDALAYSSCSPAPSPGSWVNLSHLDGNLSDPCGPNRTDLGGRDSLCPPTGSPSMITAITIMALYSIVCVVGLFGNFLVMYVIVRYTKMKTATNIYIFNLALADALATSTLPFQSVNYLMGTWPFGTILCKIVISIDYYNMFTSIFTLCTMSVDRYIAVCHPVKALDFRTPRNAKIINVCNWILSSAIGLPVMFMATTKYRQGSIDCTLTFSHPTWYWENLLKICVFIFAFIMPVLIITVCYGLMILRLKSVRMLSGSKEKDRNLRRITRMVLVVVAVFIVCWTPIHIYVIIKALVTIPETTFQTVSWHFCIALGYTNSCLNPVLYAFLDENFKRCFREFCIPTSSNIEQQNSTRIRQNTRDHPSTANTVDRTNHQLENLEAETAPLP

As to `CCCNC(=O)c1cccc(CNCc2cn(-c3ccccc3)nc2-c2ccncc2)c1` [Compound 1], in experiment [1], the midpoint of the response, the EC50, lay at 704 nM and the “Biased Agonism Selectivity Coefficient k” value was 26.7. The molecule further came in with an EC50 in experiment [2] of 18800 nM.

As to `CCCNC(=O)c1cccc(CNCc2cn(-c3ccccc3)nc2-c2ccccc2)c1` [Compound 2], in experiment [1], the EC50 amounted to 146 nM and the “Biased Agonism Selectivity Coefficient k” value came to 34.8. In addition, it took 5060 nM to reach a half-maximal effect in experiment [2] (EC50).

Consider `c1ccc(-n2cc(CNCc3ccc4occc4c3)c(-c3ccncc3)n2)cc1` [Compound 3], for which the “Biased Agonism Selectivity Coefficient k” value in experiment [1] is recorded as 157.9. The EC50 worked out at 1.24 nM in experiment [1] (setting [3]) and 195 nM in experiment [2] (setting [4]).

For the molecule `c1ccc(-c2nn(-c3ccccc3)cc2CNCc2ccc3occc3c2)cc1` [Compound 4], the figures for the EC50 in experiment [1] and in experiment [2] were 139 nM and 4570 nM, respectively. Moreover, in experiment [1], the “Biased Agonism Selectivity Coefficient k” value was 32.8.

Molecule `Cc1cc(C)n2c(CNCc3cn(-c4ccccc4)nc3-c3ccccc3)cnc2n1` [Compound 6] showed an EC50 in experiment [1] of 2190 nM.

Turning to `CCCOC(=O)c1cccc(CNCc2cn(-c3ccccc3)nc2-c2ccccc2)c1` [Compound 8], in experiment [1], the midpoint of the response, the EC50, lay at 6450 nM and the “Biased Agonism Selectivity Coefficient k” value is on record as 11.3. For the same molecule, in experiment [2], the EC50 was 569 nM.

On to `CCCOC(=O)c1cccc(CNCc2cn(-c3ccccc3)nc2-c2ccncc2)c1` [Compound 9], for which, in experiment [1], the EC50 amounted to 22200 nM and the “Biased Agonism Selectivity Coefficient k” value was 13.6. The EC50 in experiment [2] was 1630 nM.

As to `CCOC(=O)c1cccc(CNCc2cn(-c3ccccc3)nc2-c2ccccc2)c1` [Compound 10], in experiment [1], the midpoint of the response, the EC50, lay at 13900 nM and the “Biased Agonism Selectivity Coefficient k” value is reported as 7.6. In experiment [2], this molecule returned an EC50 of 1830 nM.

Turning to `CCOC(=O)c1cccc(CNCc2cn(-c3ccccc3)nc2-c2ccncc2)c1` [Compound 11], in experiment [1], the EC50 is 7220 nM and the “Biased Agonism Selectivity Coefficient k” value was determined as 9.3. Besides, the EC50 in experiment [2] amounted to 67500 nM.

Turning to `c1ccc(-n2cc(CNCc3ccc4c(c3)OCO4)c(-c3ccncc3)n2)cc1` [Compound 12], in experiment [1], the “Biased Agonism Selectivity Coefficient k” value amounted to 2228.6. The results for the EC50 in experiment [1] (setting [3]) and in experiment [2] (setting [4]) were 10.5 nM and 23400 nM, respectively.

On to `c1ccc(-n2cc(CNCc3ccc4c(c3)CCO4)c(-c3ccncc3)n2)cc1` [Compound 13], for which the “Biased Agonism Selectivity Coefficient k” value in experiment [1] was 940.9. Moreover, the figures for the EC50 in experiment [1] (setting [3]) and in experiment [2] (setting [4]) were 6.26 nM and 5890 nM, respectively.

As to `CC(C)Oc1ccc(CNCc2cn(-c3ccccc3)nc2-c2ccncc2)cc1` [Compound 14], in experiment [1], the EC50 came to 521 nM.

In the case of `c1ccc(-n2cc(CNCCn3cccn3)c(-c3ccncc3)n2)cc1` [Compound 15], the EC50 in experiment [1] turned out to be 3100 nM.
